Reference: US20040192611A1, “Peptide antioxidants from soy protein” (Kraft Foods Holdings, Inc., priority 2003, published 2004)

Assay: Antioxidant activity of soy-derived peptides isolated by HPLC (assay not specified)
Details: qualitative statement
Excerpt: In another aspect, the invention is directed to a method of producing a peptide with antioxidant activity. The peptide is made by digesting soy protein isolate (available commercially, e.g., from Protein Technology International, St. Louis, Mo., or using procedures well established in the art) with a protease to produce an aqueous hydrolysate solution. Proteases that may be used for digestion include chymosin, papain, neutrase, promod, and flavozyme and, preferably, either alcalase or corolase. The protease may come from bacterial, plant or fungal sources. The aqueous hydrolysate solution is extracted with an organic solvent, preferably acetone, and the organic phase is selected for further processing. After extraction, solvent may be removed under reduced pressure to concentrate the peptide and the preparation is then fractionated by reverse phase high pressure liquid chromatography (HPLC). Fractions collected during this process may be assayed for antioxidant activity using methods such as those described in the Examples section herein. The identification of fractions containing the peptide may be based upon the presence of antioxidant activity and upon retention time during chromatography. The identity of the peptide within fractions can be confirmed by sequence analysis.
After recovering peptide from the extraction, reverse phase high pressure liquid chromatography may be performed using, for example, a C18 column. […] Fractions collected from the column may be tested for antioxidant activity to identify peaks that are of interest. Finally, specific peptides may be identified by carrying out sequencing experiments.
Fractions with antioxidant activity are collected and subjected to further purification. This is carried out using the mobile phases:
Fractions with antioxidant activity are collected and subject to further purification. In this case, the same mobile phases are used. The flow rate is set at 0.4 ml/min and ultraviolet absorbance is set at 275 nm. The gradient elution program is set as follows: […]

| Substance | antioxidant activity |
| --- | --- |
| WTY | found to have antioxidant activity |
| WWMY (Glycine max) | found to have antioxidant activity |
| SWWPF (Glycine max) | found to have antioxidant activity |
